From the kinase profiling compilation of Christmann-Franck et al. (2016)
Several values for one entry are separate records, joined by “and”; a condition that tells them apart may be missing. Equal entries are not always repeated. Values belong to the compound of their own block, whether it stands above or below them.

Key:
Assay in all cases: Caliper, Mobility shift assay off-chip
Details in all cases: compound 1.0 µM
AKT1 (human) = AKT1 (human) (UniProt P31749)
ALK (human) = ALK (human) (UniProt Q9UM73)
BRSK2 (human) = BRSK2 (human) (UniProt Q8IWQ3)
BTK (human) = BTK (human) (UniProt Q06187)
BTK (human), sequence (Q06187 whole entry, looked up): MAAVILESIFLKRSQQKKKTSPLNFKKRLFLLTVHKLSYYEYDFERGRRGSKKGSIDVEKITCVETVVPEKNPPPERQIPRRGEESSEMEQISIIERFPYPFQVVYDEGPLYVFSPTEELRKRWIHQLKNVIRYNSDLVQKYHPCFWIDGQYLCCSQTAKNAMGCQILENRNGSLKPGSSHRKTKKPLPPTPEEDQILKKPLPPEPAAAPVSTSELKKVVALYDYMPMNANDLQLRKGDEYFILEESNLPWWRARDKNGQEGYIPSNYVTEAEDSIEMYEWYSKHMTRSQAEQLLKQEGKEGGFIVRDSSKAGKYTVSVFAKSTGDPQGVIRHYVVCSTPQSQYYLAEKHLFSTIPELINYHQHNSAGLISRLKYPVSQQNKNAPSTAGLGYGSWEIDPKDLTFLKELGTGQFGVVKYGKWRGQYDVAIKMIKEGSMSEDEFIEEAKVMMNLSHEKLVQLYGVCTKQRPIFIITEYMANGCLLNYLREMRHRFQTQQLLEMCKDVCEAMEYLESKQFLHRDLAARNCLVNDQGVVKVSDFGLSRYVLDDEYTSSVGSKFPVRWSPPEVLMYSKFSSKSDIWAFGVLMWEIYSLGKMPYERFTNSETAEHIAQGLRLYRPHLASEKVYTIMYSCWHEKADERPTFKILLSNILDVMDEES

CDK2 CCNA2 (human) = CDK2 CCNA2 (human) (UniProt P24941+P20248)
CHEK1 (human) = CHEK1 (human) (UniProt O14757)
CHEK1 (human), sequence (O14757 whole entry, looked up): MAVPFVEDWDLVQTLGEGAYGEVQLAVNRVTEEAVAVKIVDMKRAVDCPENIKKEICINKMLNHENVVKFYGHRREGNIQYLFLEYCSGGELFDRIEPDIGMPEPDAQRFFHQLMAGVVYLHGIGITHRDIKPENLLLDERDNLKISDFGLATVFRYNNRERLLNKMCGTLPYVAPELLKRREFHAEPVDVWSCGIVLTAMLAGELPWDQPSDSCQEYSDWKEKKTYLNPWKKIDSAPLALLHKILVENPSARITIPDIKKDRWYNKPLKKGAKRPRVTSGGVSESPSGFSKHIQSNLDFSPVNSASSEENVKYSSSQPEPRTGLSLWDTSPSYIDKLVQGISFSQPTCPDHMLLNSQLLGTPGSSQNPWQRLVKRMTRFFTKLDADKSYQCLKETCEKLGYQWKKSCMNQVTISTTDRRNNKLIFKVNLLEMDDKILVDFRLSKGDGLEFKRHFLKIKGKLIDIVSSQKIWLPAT

CSK (human) = CSK (human) (UniProt P41240)
EGFR (human) = EGFR (human) (UniProt P00533)
EPHA2 (human) = EPHA2 (human) (UniProt P29317)
EPHA4 (human) = EPHA4 (human) (UniProt P54764)
FGFR1 (human) = FGFR1 (human) (UniProt P11362)
FGFR3 (human) = FGFR3 (human) (UniProt P22607)
FLT3 (human) = FLT3 (human) (UniProt P36888)
IGF1R (human) = IGF1R (human) (UniProt P08069)
IKBKB (human) = IKBKB (human) (UniProt O14920)
KDR (human) = KDR (human) (UniProt P35968)
KDR (human), sequence (P35968 whole entry, looked up): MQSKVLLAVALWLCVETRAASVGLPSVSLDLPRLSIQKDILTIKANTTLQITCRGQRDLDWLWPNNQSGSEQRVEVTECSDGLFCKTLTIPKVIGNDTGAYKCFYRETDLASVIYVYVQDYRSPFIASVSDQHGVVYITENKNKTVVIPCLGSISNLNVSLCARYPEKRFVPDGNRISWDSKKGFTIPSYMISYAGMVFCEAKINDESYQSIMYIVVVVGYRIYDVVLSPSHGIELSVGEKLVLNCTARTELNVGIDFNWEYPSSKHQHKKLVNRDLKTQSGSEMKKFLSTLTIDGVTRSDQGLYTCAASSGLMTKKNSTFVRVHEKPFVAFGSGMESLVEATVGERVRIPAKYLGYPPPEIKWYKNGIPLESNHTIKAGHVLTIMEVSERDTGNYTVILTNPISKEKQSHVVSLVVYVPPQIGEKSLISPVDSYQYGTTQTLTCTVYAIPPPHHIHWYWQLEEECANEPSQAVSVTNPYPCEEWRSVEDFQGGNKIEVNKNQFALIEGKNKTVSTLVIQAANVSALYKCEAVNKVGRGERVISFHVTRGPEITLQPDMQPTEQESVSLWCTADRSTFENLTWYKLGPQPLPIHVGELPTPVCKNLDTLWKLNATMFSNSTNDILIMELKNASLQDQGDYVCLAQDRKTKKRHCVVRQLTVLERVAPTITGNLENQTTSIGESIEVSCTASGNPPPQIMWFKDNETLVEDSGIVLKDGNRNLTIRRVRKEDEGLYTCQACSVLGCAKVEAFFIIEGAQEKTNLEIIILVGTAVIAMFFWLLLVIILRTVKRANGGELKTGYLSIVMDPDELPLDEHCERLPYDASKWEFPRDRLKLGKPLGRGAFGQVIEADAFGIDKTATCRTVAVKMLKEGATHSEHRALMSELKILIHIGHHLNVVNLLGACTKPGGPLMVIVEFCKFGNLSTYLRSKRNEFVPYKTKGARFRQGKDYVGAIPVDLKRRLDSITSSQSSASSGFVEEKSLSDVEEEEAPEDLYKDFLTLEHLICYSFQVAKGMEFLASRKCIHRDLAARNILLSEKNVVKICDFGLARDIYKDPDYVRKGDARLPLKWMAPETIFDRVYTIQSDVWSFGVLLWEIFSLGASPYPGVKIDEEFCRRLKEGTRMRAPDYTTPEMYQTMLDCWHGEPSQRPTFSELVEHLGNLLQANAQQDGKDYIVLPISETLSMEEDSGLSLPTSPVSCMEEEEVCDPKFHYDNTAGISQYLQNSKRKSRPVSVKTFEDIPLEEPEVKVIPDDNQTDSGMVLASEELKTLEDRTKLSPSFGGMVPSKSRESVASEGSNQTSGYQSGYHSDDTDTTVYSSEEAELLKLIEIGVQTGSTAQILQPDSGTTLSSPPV

KIT (human) = KIT (human) (UniProt P10721)
MAP3K7 (human) = MAP3K7 (human) (UniProt O43318)
MAPK11 (human) = MAPK11 (human) (UniProt Q15759)
MAPK12 (human) = MAPK12 (human) (UniProt P53778)
MAPK13 (human) = MAPK13 (human) (UniProt O15264)
MAPK13 (human), sequence (O15264 whole entry, looked up): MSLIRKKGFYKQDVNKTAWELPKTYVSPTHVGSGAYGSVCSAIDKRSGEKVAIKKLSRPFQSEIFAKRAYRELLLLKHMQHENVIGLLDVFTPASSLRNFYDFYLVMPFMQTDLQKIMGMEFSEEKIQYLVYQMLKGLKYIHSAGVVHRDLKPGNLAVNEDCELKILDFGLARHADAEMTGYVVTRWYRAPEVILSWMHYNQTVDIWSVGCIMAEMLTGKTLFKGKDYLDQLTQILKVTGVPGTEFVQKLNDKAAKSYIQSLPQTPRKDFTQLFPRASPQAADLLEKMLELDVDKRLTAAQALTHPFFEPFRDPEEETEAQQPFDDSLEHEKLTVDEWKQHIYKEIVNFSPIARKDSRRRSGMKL

MAPK8 (human) = MAPK8 (human) (UniProt P45983)
MAPKAPK2 (human) = MAPKAPK2 (human) (UniProt P49137)
MAPKAPK5 (human) = MAPKAPK5 (human) (UniProt Q8IW41)
NEK2 (human) = NEK2 (human) (UniProt P51955)
NEK6 (human) = NEK6 (human) (UniProt Q9HC98)
PAK4 (human) = PAK4 (human) (UniProt O96013)
PIM1 (human) = PIM1 (human) (UniProt P11309)
PIM2 (human) = PIM2 (human) (UniProt Q9P1W9)
PLK3 (human) = PLK3 (human) (UniProt Q9H4B4)
PRKCA (human) = PRKCA (human) (UniProt P17252)
PRKCG (human) = PRKCG (human) (UniProt P05129)
PRKCI (human) = PRKCI (human) (UniProt P41743)
RIPK2 (human) = RIPK2 (human) (UniProt O43353)
ROCK1 (human) = ROCK1 (human) (UniProt Q13464)
RPS6KA1 KD1 KD2 (human) = RPS6KA1 KD1 KD2 (human) (UniProt Q15418)
RPS6KA5 KD1 KD2 (human) = RPS6KA5 KD1 KD2 (human) (UniProt O75582)
RPS6KB1 (human) = RPS6KB1 (human) (UniProt P23443)
SRC (human) = SRC (human) (UniProt P12931)
SRC (human), sequence (P12931 whole entry, looked up): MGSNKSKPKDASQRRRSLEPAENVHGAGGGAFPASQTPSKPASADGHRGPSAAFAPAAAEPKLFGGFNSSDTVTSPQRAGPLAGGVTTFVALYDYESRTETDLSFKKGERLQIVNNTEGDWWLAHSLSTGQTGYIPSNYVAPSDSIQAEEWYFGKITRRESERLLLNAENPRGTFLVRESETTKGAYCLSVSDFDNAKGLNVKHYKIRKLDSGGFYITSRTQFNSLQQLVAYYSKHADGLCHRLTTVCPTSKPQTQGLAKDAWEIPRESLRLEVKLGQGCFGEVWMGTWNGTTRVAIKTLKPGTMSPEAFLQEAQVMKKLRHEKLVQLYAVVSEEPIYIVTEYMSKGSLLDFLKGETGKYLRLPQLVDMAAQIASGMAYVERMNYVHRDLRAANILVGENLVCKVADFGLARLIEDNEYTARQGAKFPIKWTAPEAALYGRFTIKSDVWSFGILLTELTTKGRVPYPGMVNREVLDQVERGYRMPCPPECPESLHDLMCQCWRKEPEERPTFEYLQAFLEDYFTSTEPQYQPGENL

TEK (human) = TEK (human) (UniProt Q02763)
TEK (human), sequence (Q02763 whole entry, looked up): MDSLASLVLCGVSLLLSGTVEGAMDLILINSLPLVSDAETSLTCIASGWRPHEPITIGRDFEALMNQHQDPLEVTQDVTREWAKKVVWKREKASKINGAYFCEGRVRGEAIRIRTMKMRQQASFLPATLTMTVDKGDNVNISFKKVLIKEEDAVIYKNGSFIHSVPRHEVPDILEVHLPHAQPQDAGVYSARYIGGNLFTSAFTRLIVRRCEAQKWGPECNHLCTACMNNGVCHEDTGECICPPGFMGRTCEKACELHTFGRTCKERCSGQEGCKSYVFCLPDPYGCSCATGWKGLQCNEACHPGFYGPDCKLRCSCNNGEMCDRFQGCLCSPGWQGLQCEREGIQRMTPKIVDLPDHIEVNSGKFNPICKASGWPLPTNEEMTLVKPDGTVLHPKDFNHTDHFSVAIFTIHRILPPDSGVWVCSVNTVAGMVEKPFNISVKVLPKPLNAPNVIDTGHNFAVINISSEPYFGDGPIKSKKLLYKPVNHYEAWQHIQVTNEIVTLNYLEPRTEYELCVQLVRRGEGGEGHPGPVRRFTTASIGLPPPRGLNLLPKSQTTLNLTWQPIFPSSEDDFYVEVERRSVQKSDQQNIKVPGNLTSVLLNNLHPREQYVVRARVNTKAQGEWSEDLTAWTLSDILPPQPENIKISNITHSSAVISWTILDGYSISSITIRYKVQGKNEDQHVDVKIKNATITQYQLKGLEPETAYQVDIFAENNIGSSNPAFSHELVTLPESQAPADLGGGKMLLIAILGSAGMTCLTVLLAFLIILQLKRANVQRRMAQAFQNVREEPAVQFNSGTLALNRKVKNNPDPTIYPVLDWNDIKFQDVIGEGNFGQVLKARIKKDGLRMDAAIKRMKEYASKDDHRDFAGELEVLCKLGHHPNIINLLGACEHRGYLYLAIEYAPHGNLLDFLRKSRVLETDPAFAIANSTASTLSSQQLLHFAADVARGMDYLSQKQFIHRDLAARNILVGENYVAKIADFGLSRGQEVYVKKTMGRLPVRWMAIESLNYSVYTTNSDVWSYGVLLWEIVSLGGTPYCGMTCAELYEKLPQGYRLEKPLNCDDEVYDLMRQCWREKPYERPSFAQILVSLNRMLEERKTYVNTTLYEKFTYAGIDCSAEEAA

ZAP70 (human) = ZAP70 (human) (UniProt P43403)

AKT1 (human), sequence (P31749 whole entry, looked up): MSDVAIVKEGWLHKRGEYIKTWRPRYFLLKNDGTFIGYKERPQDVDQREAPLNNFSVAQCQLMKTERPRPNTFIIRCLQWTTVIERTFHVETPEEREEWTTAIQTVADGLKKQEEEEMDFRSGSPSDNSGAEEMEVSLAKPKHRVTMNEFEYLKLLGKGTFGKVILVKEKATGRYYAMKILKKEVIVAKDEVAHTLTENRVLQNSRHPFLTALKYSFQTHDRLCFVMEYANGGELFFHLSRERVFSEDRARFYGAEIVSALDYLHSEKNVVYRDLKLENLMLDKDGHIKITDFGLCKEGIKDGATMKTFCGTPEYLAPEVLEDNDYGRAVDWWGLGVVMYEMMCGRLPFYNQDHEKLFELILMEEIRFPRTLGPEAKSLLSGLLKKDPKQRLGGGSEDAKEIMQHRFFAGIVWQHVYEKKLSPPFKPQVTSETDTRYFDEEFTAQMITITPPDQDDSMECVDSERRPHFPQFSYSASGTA

residual activity (AKT1 (human)): 98%
residual activity (ALK (human)): 77%
residual activity (BRSK2 (human)): 15%
residual activity (BTK (human)): 79%
residual activity (CDK2 CCNA2 (human)): 104%
residual activity (CHEK1 (human)): 46%
residual activity (CSK (human)): 75%
residual activity (EGFR (human)): 116%
residual activity (EPHA2 (human)): 131%
residual activity (EPHA4 (human)): 103%
residual activity (FGFR1 (human)): 29%
residual activity (FGFR3 (human)): 60%
residual activity (FLT3 (human)): 43%
residual activity (IGF1R (human)): 85%
residual activity (IKBKB (human)): 92%
residual activity (KDR (human)): 42%
residual activity (KIT (human)): 109%
residual activity (MAP3K7 (human)): 90%
residual activity (MAPK11 (human)): 110%
residual activity (MAPK12 (human)): 106%
residual activity (MAPK13 (human)): 108%
residual activity (MAPK8 (human)): 87%
residual activity (MAPKAPK2 (human)): 115%
residual activity (MAPKAPK5 (human)): 75%
residual activity (NEK2 (human)): 116%
residual activity (NEK6 (human)): 110%
residual activity (PAK4 (human)): 95%
residual activity (PIM1 (human)): 107%
residual activity (PIM2 (human)): 99%
residual activity (PLK3 (human)): 85%
residual activity (PRKCA (human)): 108%
residual activity (PRKCG (human)): 95%
residual activity (PRKCI (human)): 98%
residual activity (RIPK2 (human)): 51%
residual activity (ROCK1 (human)): 102%
residual activity (RPS6KA1 KD1 KD2 (human)): 20%
residual activity (RPS6KA5 KD1 KD2 (human)): 83%
residual activity (RPS6KB1 (human)): 45%
residual activity (SRC (human)): 83% and 87%
residual activity (TEK (human)): 109%
residual activity (ZAP70 (human)): 104%
SMILES: C[C@@H](Nc1nc2c(C#CC3CC3)c[nH]c(=O)c2c2cc(-c3cn[nH]c3)ccc12)C(C)(C)C

residual activity (AKT1 (human)): 103%
residual activity (ALK (human)): 100%
residual activity (BRSK2 (human)): 81%
residual activity (BTK (human)): 94%
residual activity (CDK2 CCNA2 (human)): 99%
residual activity (CHEK1 (human)): 54%
residual activity (CSK (human)): 107%
residual activity (EGFR (human)): 109%
residual activity (EPHA2 (human)): 127%
residual activity (EPHA4 (human)): 100%
residual activity (FGFR1 (human)): 48%
residual activity (FGFR3 (human)): 88%
residual activity (FLT3 (human)): 9%
residual activity (IGF1R (human)): 103%
residual activity (IKBKB (human)): 105%
residual activity (KDR (human)): 106%
residual activity (KIT (human)): 100%
residual activity (MAP3K7 (human)): 32%
residual activity (MAPK11 (human)): 85%
residual activity (MAPK12 (human)): 98%
residual activity (MAPK13 (human)): 115%
residual activity (MAPK8 (human)): 94%
residual activity (MAPKAPK2 (human)): 96%
residual activity (MAPKAPK5 (human)): 78%
residual activity (NEK2 (human)): 93%
residual activity (NEK6 (human)): 114%
residual activity (PAK4 (human)): 99%
residual activity (PIM1 (human)): 103%
residual activity (PIM2 (human)): 91%
residual activity (PLK3 (human)): 111%
residual activity (PRKCA (human)): 98%
residual activity (PRKCG (human)): 86%
residual activity (PRKCI (human)): 121%
residual activity (RIPK2 (human)): 111%
residual activity (ROCK1 (human)): 96%
residual activity (RPS6KA1 KD1 KD2 (human)): 83%
residual activity (RPS6KA5 KD1 KD2 (human)): 93%
residual activity (RPS6KB1 (human)): 85%
residual activity (SRC (human)): 86%
residual activity (TEK (human)): 95%
residual activity (ZAP70 (human)): 120%
SMILES: O=C(NCCCNc1nc(Nc2cccc(NC(=O)N3CCCC3)c2)ncc1I)c1cccs1
